Entries after “also recorded” stand apart in the source; their conditions may differ. Residues, ends and D or L forms follow the SMILES beside them. *: point of attachment. Cbz = O=C(OCc1ccccc1)*
Assays:
[1] = tested on: leukemia stem cells (LSCs) CD34+CD38low or negCD123+ from AML patient samples; assay: High throughput functional drug screen (72-hour exposure, CellTiter Glo viability) on FACS sorted LSCs; format: cell-based, human; set-up: AUC Stem Mean: unit not given here; settings: for LSC drug response in dose response curves: FIG. 1C; for Effectiveness vs. LSCs (AUCstem mean < mitomycin C AUCblast mean, p<0.1): aggregate viability data of patient samples, in vitro 72 h; for AUC Stem Mean: mean area under dose response curve across patient samples, 72-hour exposure, 8 concentrations; for mean IC50 of LSC samples compared to predicted plasma concentration: FIG. 9, expected plasma concentration in patients with typical dosing
Experimental: (§1) Isolation of blasts and FACS isolation of LSCs: CD34+ blasts were enriched to >90% using immunomagnetic beads (QuadroMACS). Fluorescence activated cell sorting was performed in a biosafety cabinet enclosed FACS-Aria II (Becton-Dickinson; San Jose, Calif.) housed in the University of Washington Core Cell Analysis Facility where voltage was standardized and calibration was performed daily. Mononuclear cells were stained with allophycocyanin H7 (APC-H7) conjugated anti-human CD45, allophycocyanin (APC) conjugated anti-human CD34, phycoerythrin-Cy7 (PE-Cy7) conjugated anti-human CD38 and phycoerythrin (PE) conjugated anti-human CD123 (all from BD Biosciences Pharmingen, San Jose, Calif.). Initially a blast gate was applied for forward scatter vs. side scatter, then sequential gates for CD45 vs. side scatter, CD34+ and CD38^low or neg, then CD123+ cells to yield the LSCs. The CD38low population was defined by CD38 above the isotype control and below that of mature precursors. Flow cytometry data analysis was performed using FlowJo software (Tree Star, Inc. Ashland, Oreg.).
(§2) After overnight incubation on matrix protein coated 384 well plates, drugs were added to each well using a CyBio Well Vario liquid handler (Amalytik Jena). The cell populations were analyzed for survival after a 72-hour exposure to 8 customized drug concentrations (within the range of 5 pM to 100 microM) of each drug spanning 4 logs. Post exposure viability was measured using CellTiter Glo luminescent reagent (Promega, Madison, Wis.) per manufacturer protocol, then the plates were analyzed with the Envision Multi-label plate reader (Perkin Elmer, Waltham, Mass.). XLFit software (IDBS, Guildford, Surrey, United Kingdom) was used to analyze the data and generate dose response curves based on standard 4-parameter logistic fit. For each plate, data were normalized to DMSO 100% viability and blank controls.
(§3) Area under the curve (AUC) was calculated for each dose response curve. For the 4 patient samples, two-sample two-tailed t-tests were used for group comparisons of AUC values to determine drug specificity and efficacy.
(§4) Drug specificity was defined by group comparisons between AUCs for each drug and cell type across patient samples. […] Group comparisons for categorical variable were completed using Fisher's exact test.

[2] = tested on: AML blasts vs. leukemia stem cells (LSCs); assay: Drug specificity: group comparison of AUCs, blasts vs. LSCs across patient samples; format: cell-based, human; settings: aggregate viability data of patient samples; pairwise p-value<0.1
Experimental: as §2, §3, §4

pediatric AML blasts = settings: literature; cited from earlier work
LSCs = settings: literature; cited from earlier work
AML = settings: literature; cited from earlier work
[3] = tested on: AML blasts (CD45dim, side scatter low) from patient samples; assay: High throughput functional drug screen (72-hour exposure, CellTiter Glo viability) on AML blasts; format: cell-based, human; settings: for mean IC50 of blast samples compared to predicted plasma concentration: FIG. 9, expected plasma concentration in patients with typical dosing
Experimental: as §1
Functional Drug Screen: A CLIA-validated in vitro sensitivity assay was performed that included both FDA approved and investigational drugs. ‘Oncopane11’ comprised of 153 drugs was used for HTS of patient samples and an earlier generation panel of 160 drugs was used for HTS of the NOD/SCID IL2R γc−/− mouse engraftment sample. As detailed above, for the 4 patient samples, using FACS, the blast population (CD45^dim, side scatter^low) was confirmed to be >90% of the viable white blood cell fraction, and the LSC subpopulation (CD34^+CD38^low or negCD123^+) was isolated. For the NOD/SCID IL2R γc−/− mouse engraftment sample, both the pre-engraftment AML blasts (>90% blasts by FACs) and splenic mononuclear cells (91% hCD45+ engrafting subclone as above) were assayed. After overnight incubation on matrix protein coated 384 well plates, drugs were added to each well using a CyBio Well Vario liquid handler (Amalytik Jena). The cell populations were analyzed for survival after a 72-hour exposure to 8 customized drug concentrations (within the range of 5 pM to 100 microM) of each drug spanning 4 logs. Post exposure viability was measured using CellTiter Glo luminescent reagent (Promega, Madison, Wis.) per manufacturer protocol, then the plates were analyzed with the Envision Multi-label plate reader (Perkin Elmer, Waltham, Mass.). XLFit software (IDBS, Guildford, Surrey, United Kingdom) was used to analyze the data and generate dose response curves based on standard 4-parameter logistic fit. For each plate, data were normalized to DMSO 100% viability and blank controls.
as §3
Drug specificity was defined by group comparisons between AUCs for each drug and cell type across patient samples. For blast specific drugs AUCstem mean>AUCblast mean and for LSC specific drugs AUC^stem mean<AUC^blast mean (p<0.1). […] This approach was selected to detect differences within the small sample size, while still maintaining statistical stringency and capturing trends observed in the data set. Group comparisons for categorical variable were completed using Fisher's exact test.

SMILES	Effectiveness vs. LSCs (AUCstem mean < mitomycin C AUCblast mean, p<0.1) [1]	Drug specificity (blast specific: AUCstem mean>AUCblast mean; LSC specific: AUCstem mean<AUCblast mean) [2]	AUC Stem Mean [1]	further results
Cc1csc(-c2nnc(Nc3ccc(Oc4ncccc4-c4ccnc(N)n4)cc3)c3ccccc23)c1 [AMG-900]	–	–	–	LSC drug response in dose response curves ([1]; patient sample on the right): sensitive
Nc1ncn([C@@H]2O[C@H](CO)[C@@H](O)[C@H]2O)c(=O)n1 [Azacitidine]	did not result in appreciable cytotoxicity	LSC specific; also recorded: LSC-specific	–	–
CO[C@H]1C(=O)[C@]2(C)[C@@H](OC)C[C@H]3OC[C@@]3(OC(C)=O)[C@H]2[C@H](OC(=O)c2ccccc2)[C@]2(O)C[C@H](OC(=O)[C@H](O)[C@@H](NC(=O)OC(C)(C)C)c3ccccc3)C(C)=C1C2(C)C [Cabazitaxel]	effective	–	0.0031	effect vs. pediatric AML blasts in vitro (pediatric AML blasts): effective
CC(C)C[C@H](NC(=O)[C@H](CCc1ccccc1)NC(=O)CN1CCOCC1)C(=O)N[C@@H](Cc1ccccc1)C(=O)N[C@@H](CC(C)C)C(=O)[C@@]1(C)CO1 [Carfilzomib]	not effective	–	–	anti-LSC effect in vitro in prior studies (LSCs): reduced LSCs in vitro; clinical effect in AML patients (AML): minimal anti-leukemic effects
Nc1nc(Cl)nc2c1ncn2[C@H]1C[C@H](O)[C@@H](CO)O1 [Cladribine]	–	blast cell specific; also recorded: blast cell-specific	–	mean IC50 of LSC samples compared to predicted plasma concentration [1]: greater than the predicted plasma concentration; mean IC50 of blast samples compared to predicted plasma concentration [3]: less than predicted plasma concentration
CC1(COc2ccc3c(c2)ncn3-c2ccc3cccc(N4CCC(N)CC4)c3n2)COC1 [Crenolanib]	–	–	0.0054	–
Nc1ccn([C@@H]2O[C@H](CO)[C@@H](O)[C@@H]2O)c(=O)n1 [Cytarabine]	–	blast cell specific; also recorded: blast cell-specific	–	LSC drug response in dose response curves ([1]; patient sample on the left): resistant; LSC drug response in dose response curves ([1]; patient sample on the right): resistant; mean IC50 of LSC samples compared to predicted plasma concentration [1]: greater than the predicted plasma concentration; mean IC50 of blast samples compared to predicted plasma concentration [3]: less than predicted plasma concentration
CCc1cnn2c(NCc3ccc[n+]([O-])c3)cc(N3CCCC[C@H]3CCO)nc12 [Dinaciclib]	–	–	0.048	–
COc1cc([C@@H]2c3cc4c(cc3[C@@H](O[C@@H]3O[C@@H]5CO[C@@H](C)O[C@H]5[C@H](O)[C@H]3O)[C@H]3COC(=O)[C@H]23)OCO4)cc(OC)c1O [Etoposide]	–	blast cell specific; also recorded: blast cell-specific	–	mean IC50 of LSC samples compared to predicted plasma concentration [1]: greater than the predicted plasma concentration; mean IC50 of blast samples compared to predicted plasma concentration [3]: less than predicted plasma concentration
CC(=O)[C@]1(O)Cc2c(O)c3c(c(O)c2[C@@H](O[C@H]2C[C@H](N)[C@H](O)[C@H](C)O2)C1)C(=O)c1ccccc1C3=O [Idarubicin]	–	blast cell specific; also recorded: blast cell-specific	–	LSC drug response in dose response curves ([1]; patient sample on the left): resistant; mean IC50 of LSC samples compared to predicted plasma concentration [1]: greater than the predicted plasma concentration; mean IC50 of blast samples compared to predicted plasma concentration [3]: less than predicted plasma concentration
CC(C)C[C@@H](C=O)NC(=O)[C@H](CC(C)C)NC(=O)[C@H](CC(C)C)NC(=O)OCc1ccccc1 [MG-132] (Cbz-Leu-Leu-Leu-aldehyde)	–	–	0.0039	–
CO[C@@]12[C@H](COC(N)=O)C3=C(C(=O)C(C)=C(N)C3=O)N1C[C@@H]1N[C@@H]12 [Mitomycin C]	–	blast cell specific	–	LSC response to mitomycin C in dose response curves ([1]; FIG. 3, both patient samples): resistant; Blast response to mitomycin C in dose response curves ([3]; FIG. 3, both patient samples): sensitive
Nc1ccccc1NC(=O)c1ccc(CNc2nccc(-c3cccnc3)n2)cc1 [Mocetinostat]	LSC effective	–	0.0029	–
Cc1ccc([N+](=O)[O-])cc1S(=O)(=O)N(C)/N=C/c1cnc2ccc(Br)cn12 [PIK-75]	effective	–	0.0041	–
Cc1ccc(C(=O)Nc2ccc(CN3CCN(C)CC3)c(C(F)(F)F)c2)cc1C#Cc1cnc2cccnn12 [Ponatinib]	–	–	0.00085	–
C/C=C1\NC(=O)[C@H]2CSSCC/C=C/[C@H](CC(=O)N[C@H](C(C)C)C(=O)N2)OC(=O)[C@H](C(C)C)NC1=O [Romidepsin]	–	–	0.00041	–
CN1CCC(CNc2ccc3ncc(-c4cccc(OC(F)(F)F)c4)n3n2)CC1 [SGI-1776]	–	–	0.00076	–
CNC(=O)c1cc(Oc2ccc(NC(=O)Nc3ccc(Cl)c(C(F)(F)F)c3)cc2)ccn1 [Sorafenib]	effectively killed; also recorded: effective	LSC specific; also recorded: LSC-specific	0.0045	–
CCN(CC)CCNC(=O)c1c(C)[nH]c(/C=C2\C(=O)Nc3ccc(F)cc32)c1C [Sunitinib]	–	–	0.00039	–
COCCn1c2c([n+](Cc3cnccn3)c1C)C(=O)c1ccccc1C2=O [YM-155]	effective	–	0.00089	LSC drug response in dose response curves ([1]; patient sample on the left): sensitive
CC(C)C[C@H](NC(=O)[C@H](Cc1ccccc1)NC(=O)c1cnccn1)B(O)O [bortezomib]	ineffective	–	–	–
Nc1nc(Cl)nc2c1ncn2[C@@H]1O[C@H](CO)[C@@H](O)[C@@H]1F [clofarabine]	–	trended towards blast cell specific; also recorded: trended towards blast cell-specific	–	mean IC50 of LSC samples compared to predicted plasma concentration [1]: greater than the predicted plasma concentration; mean IC50 of blast samples compared to predicted plasma concentration [3]: less than predicted plasma concentration
COc1cccc2c1C(=O)c1c(O)c3c(c(O)c1C2=O)C[C@@](O)(C(C)=O)C[C@@H]3O[C@H]1C[C@H](N)[C@H](O)[C@H](C)O1 [daunorubicin]	–	non-specific	–	LSC drug response in dose response curves ([1]; patient sample on the right): resistant; mean IC50 of LSC samples compared to predicted plasma concentration [1]: opposite pattern; mean IC50 of blast samples compared to predicted plasma concentration [3]: opposite pattern
Nc1ccn([C@@H]2O[C@H](CO)[C@@H](O)C2(F)F)c(=O)n1 [gemcitabine]	–	–	–	LSC drug response in dose response curves ([1]; patient sample on the left): sensitive
CC(C)C[C@H](NC(=O)CNC(=O)c1cc(Cl)ccc1Cl)B(O)O [ixazomib]	–	–	–	anti-LSC effect in vitro in prior studies (LSCs): anti-LSC effect was shown in vitro
O=C1c2c(O)ccc(O)c2C(=O)c2c(NCCNCCO)ccc(NCCNCCO)c21 [mitoxantrone]	–	trended towards blast cell specific; also recorded: trended towards blast cell-specific	–	mean IC50 of LSC samples compared to predicted plasma concentration [1]: less than predicted plasma concentration; mean IC50 of blast samples compared to predicted plasma concentration [3]: less than predicted plasma concentration

Reference: patent US20210285933A1, “HIGH THROUGHPUT DRUG SCREENING OF CANCER STEM CELLS” (UNIVERSITY OF WASHINGTON, priority 2018, published 2021)
